# Assay results from patent US20130303509A1, “NAMPT INHIBITORS” (AbbVie Inc., priority 2012, published 2013).
# Test system: PC3 cells
# Assay: NAMPT Cell Proliferation Assay
# Assay type: cell-based
# Settings: Homo sapiens, PC-3, 120 h, 5 days incubation, cell viability by Cell Titer Glo
# In short: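 Seeded at 500 cells/well in RPMI with 10% heat-inactivated FBS and left to attach overnight at 37° C, 5% CO2. Compounds were added as 10-fold dilutions […] for 5 days, then viability was read by CellTiter-Glo. IC50s came from sigmoidal fits of percent inhibition.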
row,IC50,Structure (SMILES)
1,0.0067 µM,"O=C(Nc1ccc(OC2CCN(C(=O)Cc3cc(F)cc(F)c3)CC2)cc1)C1CN(c2cccnn2)C1 [Example 239, N-[4-({1-[(3,5-difluorophenyl)acetyl]piperidin-4-yl}oxy)phenyl]-1-(pyridazin-3-yl)azetidine-3-carboxamide]"
2,0.0103 µM,"O=C(Nc1ccc(OC2CCN(C(=O)Cc3cccc(C(F)(F)F)c3)CC2)cc1)C1CN(c2cccnn2)C1 [Example 240, 1-(pyridazin-3-yl)-N-{4-[(1-{[3-(trifluoromethyl)phenyl]acetyl}piperidin-4-yl)oxy]phenyl}azetidine-3-carboxamide]"
3,0.00773 µM,"CC(C)(C)C(=O)N1CCC(Oc2ccc(NC(=O)C3CN(c4cccnn4)C3)cc2)CC1 [Example 241, N-(4-{[1-(2,2-dimethylpropanoyl)piperidin-4-yl]oxy}phenyl)-1-(pyridazin-3-yl)azetidine-3-carboxamide]"
4,0.00906 µM,"O=C(Nc1ccc(OC2CCN(C(=O)c3ccccn3)CC2)cc1)C1CN(c2cccnn2)C1 [Example 242, 1-(pyridazin-3-yl)-N-(4-{[1-(pyridin-2-ylcarbonyl)piperidin-4-yl]oxy}phenyl)azetidine-3-carboxamide]"
5,0.00928 µM,"O=C(Nc1ccc(OC2CCN(C(=O)c3cc(F)cc(F)c3)CC2)cc1)C1CN(c2cccnn2)C1 [Example 243, N-(4-{[1-(3,5-difluorobenzoyl)piperidin-4-yl]oxy}phenyl)-1-(pyridazin-3-yl)azetidine-3-carboxamide]"
6,0.0104 µM,"CC(=O)N1CCC(Oc2ccc(NC(=O)C3CN(c4cccnn4)C3)cc2)CC1 [Example 244, -{4-[(1-acetylpiperidin-4-yl)oxy]phenyl}-1-(pyridazin-3-yl)azetidine-3-carboxamide]"
7,0.00706 µM,"O=C(Nc1ccc(OC2CCN(C(=O)c3ccc(Cl)cc3)CC2)cc1)C1CN(c2cccnn2)C1 [Example 245, N-(4-{[1-(4-chlorobenzoyl)piperidin-4-yl]oxy}phenyl)-1-(pyridazin-3-yl)azetidine-3-carboxamide]"
8,0.00965 µM,"COCC(=O)N1CCC(Oc2ccc(NC(=O)C3CN(c4cccnn4)C3)cc2)CC1 [Example 246, N-(4-{[1-(methoxyacetyl)piperidin-4-yl]oxy}phenyl)-1-(pyridazin-3-yl)azetidine-3-carboxamide]"
9,0.00798 µM,"O=C(Nc1ccc(OC2CCN(C(=O)Cc3ccccc3F)CC2)cc1)C1CN(c2cccnn2)C1 [Example 247, N-[4-({1-[(2-fluorophenyl)acetyl]piperidin-4-yl}oxy)phenyl]-1-(pyridazin-3-yl)azetidine-3-carboxamide]"
10,0.00658 µM,"CCC(C)(C)C(=O)N1CCC(Oc2ccc(NC(=O)C3CN(c4cccnn4)C3)cc2)CC1 [Example 248, N-(4-{[1-(2,2-dimethylbutanoyl)piperidin-4-yl]oxy}phenyl)-1-(pyridazin-3-yl)azetidine-3-carboxamide]"
11,0.00235 µM,"O=C(Nc1ccc(OC2CCN(C(=O)c3cccs3)CC2)cc1)C1CN(c2cccnn2)C1 [Example 249, 1-(pyridazin-3-yl)-N-(4-{[1-(thiophen-2-ylcarbonyl)piperidin-4-yl]oxy}phenyl)azetidine-3-carboxamide]"
12,0.00911 µM,"O=C(Nc1ccc(OC2CCN(C(=O)c3cccc(Cl)c3)CC2)cc1)C1CN(c2cccnn2)C1 [Example 250, N-(4-{[1-(3-chlorobenzoyl)piperidin-4-yl]oxy}phenyl)-1-(pyridazin-3-yl)azetidine-3-carboxamide]"
13,0.00787 µM,"O=C(Nc1ccc(OC2CCN(C(=O)C3CC3)CC2)cc1)C1CN(c2cccnn2)C1 [Example 251, N-(4-{[1-(cyclopropylcarbonyl)piperidin-4-yl]oxy}phenyl)-1-(pyridazin-3-yl)azetidine-3-carboxamide]"
14,0.00951 µM,"O=C(Nc1ccc(OC2CCN(C(=O)CC(F)(F)F)CC2)cc1)C1CN(c2cccnn2)C1 [Example 252, 1-(pyridazin-3-yl)-N-(4-{[1-(3,3,3-trifluoropropanoyl)piperidin-4-yl]oxy}phenyl)azetidine-3-carboxamide]"
15,0.00809 µM,"CC(C)C(=O)N1CCC(Oc2ccc(NC(=O)C3CN(c4cccnn4)C3)cc2)CC1 [Example 253, N-(4-{[1-(2-methylpropanoyl)piperidin-4-yl]oxy}phenyl)-1-(pyridazin-3-yl)azetidine-3-carboxamide]"
16,0.012 µM,"CC(C)(C)CC(=O)N1CC(Oc2ccc(NC(=O)C3CN(c4ccnnc4)C3)cc2)C1 [Example 254, N-(4-{[1-(3,3-dimethylbutanoyl)azetidin-3-yl]oxy}phenyl)-1-(pyridazin-4-yl)azetidine-3-carboxamide]"
17,0.0241 µM,"O=C(Nc1ccc(OC2CN(C(=O)C3CCCCC3)C2)cc1)C1CN(c2ccnnc2)C1 [Example 255, N-(4-{[1-(cyclohexylcarbonyl)azetidin-3-yl]oxy}phenyl)-1-(pyridazin-4-yl)azetidine-3-carboxamide]"
18,0.145 µM,"O=C(Nc1ccc(OC2CN(C(=O)CC3CCOCC3)C2)cc1)C1CN(c2ccnnc2)C1 [Example 256, 1-(pyridazin-4-yl)-N-(4-{[1-(tetrahydro-2H-pyran-4-ylacetyl)azetidin-3-yl]oxy}phenyl)azetidine-3-carboxamide]"

row,IC50,Structure (SMILES)
1,0.0761 µM,"CC1CC1C(=O)N1CC(Oc2ccc(NC(=O)C3CN(c4ccnnc4)C3)cc2)C1 (centres unmarked) [Example 257, N-[4-({1-[(2-methylcyclopropyl)carbonyl]azetidin-3-yl}oxy)phenyl]-1-(pyridazin-4-yl)azetidine-3-carboxamide]"
2,0.309 µM,"O=C(Nc1ccc(OC2CN(C(=O)CC(F)(F)F)C2)cc1)C1CN(c2ccnnc2)C1 [Example 258, 1-(pyridazin-4-yl)-N-(4-{[1-(3,3,3-trifluoropropanoyl)azetidin-3-yl]oxy}phenyl)azetidine-3-carboxamide]"
3,0.0726 µM,"O=C(Nc1ccc(OC2CN(C(=O)C3CCCC3)C2)cc1)C1CN(c2ccnnc2)C1 [Example 259, N-(4-{[1-(cyclopentylcarbonyl)azetidin-3-yl]oxy}phenyl)-1-(pyridazin-4-yl)azetidine-3-carboxamide]"
4,0.0746 µM,"CC(C)(C)CC(=O)N1CCC(Oc2ccc(NC(=O)C3CN(c4ccnnc4)C3)cc2)CC1 [Example 260, N-(4-{[1-(3,3-dimethylbutanoyl)piperidin-4-yl]oxy}phenyl)-1-(pyridazin-4-yl)azetidine-3-carboxamide]"
5,0.0715 µM,"O=C(Nc1ccc(OC2CN(C(=O)C3CCC3)C2)cc1)C1CN(c2ccnnc2)C1 [Example 261, N-(4-{[1-(cyclobutylcarbonyl)azetidin-3-yl]oxy}phenyl)-1-(pyridazin-4-yl)azetidine-3-carboxamide]"
6,0.119 µM,"O=C(Nc1ccc(OC2CN(C(=O)C3CCCO3)C2)cc1)C1CN(c2ccnnc2)C1 (centres unmarked) [Example 262, 1-(pyridazin-4-yl)-N-(4-{[1-(tetrahydrofuran-2-ylcarbonyl)azetidin-3-yl]oxy}phenyl)azetidine-3-carboxamide]"
7,0.0595 µM,"CC(C)CCC(=O)N1CC(Oc2ccc(NC(=O)C3CN(c4ccnnc4)C3)cc2)C1 [Example 263, N-(4-{[1-(4-methylpentanoyl)azetidin-3-yl]oxy}phenyl)-1-(pyridazin-4-yl)azetidine-3-carboxamide]"
8,0.1 µM,"CC(C)C(=O)N1CC(Oc2ccc(NC(=O)C3CN(c4ccnnc4)C3)cc2)C1 [Example 264, N-(4-{[1-(2-methylpropanoyl)azetidin-3-yl]oxy}phenyl)-1-(pyridazin-4-yl)azetidine-3-carboxamide]"
9,0.0701 µM,"CC[C@H](C)C(=O)N1CC(Oc2ccc(NC(=O)C3CN(c4ccnnc4)C3)cc2)C1 [Example 265, N-[4-({1-[(2S)-2-methylbutanoyl]azetidin-3-yl}oxy)phenyl]-1-(pyridazin-4-yl)azetidine-3-carboxamide]"
10,0.083 µM,"CC(C)CC(=O)N1CCC(Oc2ccc(NC(=O)C3CN(c4ccnnc4)C3)cc2)CC1 [Example 266, N-(4-{[1-(3-methylbutanoyl)piperidin-4-yl]oxy}phenyl)-1-(pyridazin-4-yl)azetidine-3-carboxamide]"
11,0.622 µM,"COCC(=O)N1CCC(Oc2ccc(NC(=O)C3CN(c4ccnnc4)C3)cc2)CC1 [Example 267, N-(4-{[1-(methoxyacetyl)piperidin-4-yl]oxy}phenyl)-1-(pyridazin-4-yl)azetidine-3-carboxamide]"
12,0.0829 µM,"O=C(Nc1ccc(OC2CCN(C(=O)CC(F)(F)F)CC2)cc1)C1CN(c2ccnnc2)C1 [Example 268, 1-(pyridazin-4-yl)-N-(4-{[1-(3,3,3-trifluoropropanoyl)piperidin-4-yl]oxy}phenyl)azetidine-3-carboxamide]"
13,0.0604 µM,"O=C(Nc1ccc(OC2CCN(C(=O)C(F)(F)c3ccccc3)CC2)cc1)C1CN(c2ccnnc2)C1 [Example 269, N-[4-({1-[difluoro(phenyl)acetyl]piperidin-4-yl}oxy)phenyl]-1-(pyridazin-4-yl)azetidine-3-carboxamide]"
14,0.0627 µM,"O=C(Nc1ccc(OC2CCN(C(=O)C3CCC(F)(F)CC3)CC2)cc1)C1CN(c2ccnnc2)C1 [Example 270, N-[4-({1-[(4,4-difluorocyclohexyl)carbonyl]piperidin-4-yl}oxy)phenyl]-1-(pyridazin-4-yl)azetidine-3-carboxamide]"
15,0.0515 µM,"O=C(Nc1ccc(OC2CCN(C(=O)c3ccc(F)cc3)CC2)cc1)C1CN(c2ccnnc2)C1 [Example 271, N-(4-{[1-(4-fluorobenzoyl)piperidin-4-yl]oxy}phenyl)-1-(pyridazin-4-yl)azetidine-3-carboxamide]"
16,0.0795 µM,"O=C(Nc1ccc(OC2CCN(C(=O)c3cscn3)CC2)cc1)C1CN(c2ccnnc2)C1 [Example 272, 1-(pyridazin-4-yl)-N-(4-{[1-(1,3-thiazol-4-ylcarbonyl)piperidin-4-yl]oxy}phenyl)azetidine-3-carboxamide]"
17,0.634 µM,"O=C(Nc1ccc(OC2CCN(C(=O)Cc3ccc(C(F)(F)F)cc3)CC2)cc1)C1CN(c2ccnnc2)C1 [Example 273, 1-(pyridazin-4-yl)-N-{4-[(1-{[4-(trifluoromethyl)phenyl]acetyl}piperidin-4-yl)oxy]phenyl}azetidine-3-carboxamide]"
